In ChEMBL document CHEMBL1144501, “Synthesis, characterization and biological activity of complexes of lanthanum(III) with 2-(1'-phenyl- 2'-carboxyl-3'-aza-n-butyl)-1,10-phenanthroline and 2-(1'-p-phenol-2'-carboxyl-3'-aza-n-butyl)-1,10-phenanthroline” (Bioorg Med Chem, 2007):
pIC50: −log10 of the molar value.

Experiments:
Assay type in all cases: cell-based
[1] = Cytotoxicity against human Bel7402 cells after 72 hrs; details: Bel-7402, 72 h
HeLa = test: Cytotoxicity against human HeLa cells after 72 hrs
HL-60 = test: Cytotoxicity against human HL60 cells after 72 hrs; details: HL-60, 72 h
[2] = Cytotoxicity against human BGC823 cells after 72 hrs; details: BGC-823, 72 h
[3] = Cytotoxicity against human PC-3MIE8 cells after 72 hrs; details: PC-3MIE8, 72 h
MDA-MB-435 = test: Cytotoxicity against human MDA-MB-435 cells after 72 hrs; details: MDA-MB-435, 72 h

Measured: pIC50

O=C(O)C(Cc1ccccc1)NCc1ccc2ccc3cccnc3c2n1 (configuration not stated)
< 4.00: all assays above

O=C(O)C(Cc1ccc(O)cc1)NCc1ccc2ccc3cccnc3c2n1 (configuration not stated)
< 4.00: all assays above
